The numbers were not newly measured in patent US9827227B2, “Controlled release pharmaceutical formulations of nitazoxanide” (Romark Laboratories L.C., priority 2009, dated 2017), which cites them from elsewhere.

The test system of data set [1] is DNA viruses. The conditions noted are these: in vitro, in words.
The subject of data set [2] is hepatitis C virus (HCV). The conditions noted are these: in vitro and in clinical trials, in words.
For data set [3] the following is noted: after oral administration of nitazoxanide in humans.

`CC(=O)Oc1ccccc1C(=O)Nc1ncc([N+](=O)[O-])s1` [Nitazoxanide, 2-(acetolyloxy)-N-(5-nitro-2-thiazolyl) benzamide]: in data set [1], the “activity against certain DNA viruses” value was “active”. The “activity against hepatitis C virus (HCV)” value in data set [2] is “activity against hepatitis C virus”.
On to `O=C(Nc1ncc([N+](=O)[O-])s1)c1ccccc1O` [tizoxanide], for which, in data set [3], the half-life in plasma entry was “approximately 1.5 hours”. In data set [1], the “activity against certain DNA viruses” value is on record as “active”. For the same compound, in data set [2], the “activity against hepatitis C virus (HCV)” value was “activity against hepatitis C virus”.
